What was measured:
[1] = test system: Plasmodium falciparum 3D7; assay: P. falciparum growth inhibition assay (Pf-LDH); format: cell-based; details: Plasmodium falciparum, Erythrocyte; P. falciparum 3D7 infected erythrocytes, 72 h incubation, PfLDH readout
Procedure: Basic culture of Plasmodium falciparum 3D7 parasites (Malaria Research and Reference Reagent Resource Center (MR4), MR4 Number: MRA-102).
Starting with a culture with a parasitemia of about 10% (and 5% hematocrit), 0.5 ml of the culture is placed in a fresh 100 mm petri dish with 0.95 ml of fresh erythrocytes (50% hematocrit) and 8.55 ml of culture medium, giving a new starting parasitemia of 0.5%. The petri dish is then incubated at 37° C. in a humidified gas-tight plastic box flushed with a gas mixture consisting of 93% N2, 4% CO2, and 3% O2. The culture medium is changed daily. The supernatant is removed by gently tipping the dish without disturbing the settled cells and aspirating the medium with a Pasteur pipette connected to a vacuum pump. A small amount of the concentrated cells is taken to prepare a blood smear for determination of the parasitemia. Normally, the cultures are split twice a week. If the parasites are growing very slowly then fresh erythrocytes are added to the culture no later than after 7 days. The cultures are then split 1:2 if the parasitemia is lower than 0.5%. To avoid the necessity of daily medium change on weekends, a culture with a 2.5% hematocrit and 0.1-0.2% parasitemia is set up and can be left for 3 days without medium change.
Standard medium consists of RPMI 1640, supplemented with 25 mM HEPES, 24 mM NaHCO3, 0.36 mM hypoxanthine, 100 μg/ml Neomycin, 5 g/1 Albumax® II, and washed human red blood cells (rbcs) A+.
P. falciparum Growth Inhibition Assay (Pf-LDH)
Compounds of the invention were assessed for in vitro antimalarial activity against a cloroquine sensitive (3D7) strain of the malaria parasite Plasmodium falciparum, using a lactate dehydrogenase (PfLDH) assay.
EC50 Determination by Pf-LDH Assay
384 plates (where compounds to be tested are dispensed) with 25 μl of parasite inoculum (parasitemia: 0.25%, hematocrit: 2%) are incubated at 37° C. in an atmosphere of 4% CO2, 3% O2, 93% N2. After 72 h of incubation, plates are frozen at −70° C. overnight and thawed at room temperature for at least 4 h. To evaluate PfLDH activity, 70 μl of freshly made reaction mix (143 mM sodium L-lactate, 143 μM 3-acetyl pyridine adenine dinucleotide (APAD), 178.75 μM Nitro Blue tetrazolium chloride (NBT), 286 μg/ml diaphorase (2.83 U/ml), 0.7% Tween 20, 100 mM Tris-HCl pH 8.0) is dispensed using a Multidrop Combi dispenser. Plates are shaken to ensure mixing and absorbance at 650 nm is monitored in a plate reader after 10 min of incubation at room temperature.
Negative controls (0% Effect) are produced by addition of DMSO to the proper wells.
Positive controls (100% Effect) are produced by addition of 150 nM Artemisinin (Sigma-Aldrich, 361593)
After result normalization using positive and negative controls, compound potency is determined by fitting the following equation: % inh=Ymin+(Ymax−Ymin)/(1+(X/EC50)^slope)) Where: • Ymin=minimum percentage effect • Ymax=maximum percentage effect • EC50=the concentration of the compound at which 50% effect is reached • Slope=the slope of the curve calculated at the EC50 Histone Hyperacetylation and Immunodetection of Altered Histone Modifications Assay

human HDAC1 = molecular target: T1, human HDAC1 (Homo sapiens, UniProt Q13547); assay: Homo sapiens HDAC1 inhibition assay (Fluor-de-Lys, enzymatic); format: biochemical; details: human HDAC enzymatic assay; read-out: hHDAC IC50
T1 construct: made in house; host or cells: HeLa (ATCC CCL-2), mammalian cells
Procedure: Biology Homo sapiens HDAC1 Inhibition Assay Overview:
The aim of the assay is to evaluate the inhibition of the deacetylase activity of human HDAC1. To such goal an acetylated substrate is added to the enzyme mix; the resulting enzymatic product is converted to a fluorescent molecule by the addition the enzyme trypsine (developer solution). Fluorescence intensity is inversely proportional to the rate of inhibition of the enzyme (as indicated in the material section below).
Reagents of the HDAC Fluorescent Activity Assay are purchased from Enzo Life Sciences (http://www.enzolifesciences.com/BML-AK500/fluor-de-lys-hdac-fluorometric-activity-assay-kit/) and feature the Fluor-de-Lys™ Substrate/Developer System.
c) Trichostatin A (TSA) Stock
TSA (Sigma-Aldrich, T8552) is provided as a 10 mM stock solution in 100% dimethylsulfoxide (DMSO).
Diluted Substrate Solution
The final concentration in the assay is 20 μM.
Diluted Developer Solution
2 μM [final] TSA to this solution increases its ability to stop the reaction.
The HDAC1 enzyme is diluted in assay buffer prior to each use from a fresh aliquot of enzyme.
The final concentration in the assay is 1-2 nM.
Test compounds should be prepared in 100% DMSO and transferred to the assay by a nano volume dispenser to reach the appropriate concentration and the appropriate DMSO concentration (0.25%) in the reaction.

T1 sequence (Q13547 whole entry): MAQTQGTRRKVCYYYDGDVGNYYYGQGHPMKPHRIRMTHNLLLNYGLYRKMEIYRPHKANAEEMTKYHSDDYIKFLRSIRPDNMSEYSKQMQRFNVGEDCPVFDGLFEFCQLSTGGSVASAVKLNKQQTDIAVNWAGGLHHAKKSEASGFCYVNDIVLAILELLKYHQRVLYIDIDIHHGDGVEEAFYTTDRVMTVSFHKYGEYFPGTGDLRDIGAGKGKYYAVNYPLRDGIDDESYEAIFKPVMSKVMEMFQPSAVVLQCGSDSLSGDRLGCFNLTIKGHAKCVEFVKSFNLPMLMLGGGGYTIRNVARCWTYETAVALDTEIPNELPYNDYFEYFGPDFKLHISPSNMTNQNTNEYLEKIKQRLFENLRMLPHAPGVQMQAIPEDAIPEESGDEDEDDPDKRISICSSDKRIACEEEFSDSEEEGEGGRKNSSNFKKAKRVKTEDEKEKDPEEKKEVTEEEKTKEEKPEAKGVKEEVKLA

EC50 [1] [µM]	IC50 (human HDAC1) [µM]	Structure (SMILES)
1 to 5	< 1	CNC(=O)CCCCC[C@H](NC(=O)c1nnc(C)s1)c1ncc(-c2cc3ccccc3nc2OC)[nH]1 [Entry 31, (S)-N-(1-(5-(2-methoxyquinolin-3-yl)-1H-imidazol-2-yl)-7-(methylamino)-7-oxoheptyl)-5-methyl-1,3,4-thiadiazole-2-carboxamide]
1 to 5	1 to 5	CNC(=O)CCCCC[C@H](NC(=O)CN1CCOCC1)c1ncc(-c2ccc3ccccc3c2)[nH]1 [Entry 23, (S)-N-methyl-7-(2-morpholinoacetamido)-7-(5-(naphthalen-2-yl)-1H-imidazol-2-yl)heptanamide]
1 to 5	> 5	CNC(=O)CCCCC[C@H](NC(=O)c1cncs1)c1ncc(-c2cccc(-c3cc[nH]n3)c2)[nH]1 [Entry 188, (S)-N-(1-(5-(3-(1H-pyrazol-3-yl)phenyl)-1H-imidazol-2-yl)-7-(methylamino)-7-oxoheptyl)thiazole-5-carboxamide]
1 to 5	1 to 5	CNC(=O)CCCCC[C@H](NC(=O)c1cc2cc(OC)ccc2[nH]1)c1ncc(-c2ccc3ccccc3c2)[nH]1 [Entry 73, (S)-5-methoxy-N-(7-(methylamino)-1-(5-(naphthalen-2-yl)-1H-imidazol-2-yl)-7-oxoheptyl)-1H-indole-2-carboxamide]
1 to 5	1 to 5	CNC(=O)CCCCC[C@H](NC(=O)C1(C)CCOCC1)c1ncc(-c2ccc3ccccc3c2)[nH]1 [Entry 40]
> 5	> 5	CNC(=O)CCCCC[C@H](NC(=O)C1CCN(C)CC1)c1ncc(-c2ccc(-n3cccn3)cc2)[nH]1 [Entry 162]
1 to 5	1 to 5	CNC(=O)CCCCC[C@H](NC(=O)c1cc(-c2ccco2)n[nH]1)c1ncc(-c2ccc3ccccc3c2)[nH]1 [Entry 86, (S)-3-(furan-2-yl)-N-(7-(methylamino)-1-(5-(naphthalen-2-yl)-1H-imidazol-2-yl)-7-oxoheptyl)-1H-pyrazole-5-carboxamide]
< 1	< 1	CNC(=O)CCCCC[C@H](NC(=O)c1cncs1)c1ncc(-c2ccc3cc(OC)ccc3c2)[nH]1 [Entry 194, (S)-N-(1-(5-(6-methoxynaphthalen-2-yl)-1H-imidazol-2-yl)-7-(methylamino)-7-oxoheptyl)thiazole-5-carboxamide]
1 to 5	1 to 5	CNC(=O)CCCCC[C@H](NC(=O)c1ccc(-n2cccc2)nc1)c1ncc(-c2ccc3ccccc3c2)[nH]1 [Entry 83, (S)-N-(7-(methylamino)-1-(5-(naphthalen-2-yl)-1H-imidazol-2-yl)-7-oxoheptyl)-6-(1H-pyrrol-1-yl)nicotinamide]
> 5	1 to 5	CNC(=O)CCCCC[C@H](NC(=O)c1nc2ncccn2n1)c1ncc(-c2ccc3ccccc3c2)[nH]1 [Entry 43, (S)-N-(7-(methylamino)-1-(5-(naphthalen-2-yl)-1H-imidazol-2-yl)-7-oxoheptyl)-[1,2,4]triazolo[1,5-a]pyrimidine-2-carboxamide]
1 to 5	< 1	CNC(=O)CCCCC[C@H](NC(=O)c1cc(C)nn1C)c1ncc(-c2cc3ccccc3nc2OC)[nH]1 [Entry 9, (S)-N-(1-(5-(2-methoxyquinolin-3-yl)-1H-imidazol-2-yl)-7-(methylamino)-7-oxoheptyl)-1,3-dimethyl-1H-pyrazole-5-carboxamide]
< 1	1 to 5	CNC(=O)CCCCC[C@H](NC(=O)c1cnc(C)s1)c1ncc(-c2ccc(-c3ccn(C)n3)cc2)[nH]1 [Entry 17, (S)-2-methyl-N-(1-(5-(4-(1-methyl-1H-pyrazol-3-yl)phenyl)-1H-imidazol-2-yl)-7-(methylamino)-7-oxoheptyl)thiazole-5-carboxamide]
> 5	1 to 5	CNC(=O)CCCCC[C@H](NC(=O)c1cncs1)c1ncc(-c2ccc(CN(C)C)cc2)[nH]1 [Entry 78, (S)-N-(1-(5-(4-((dimethyl-amino)methyl)phenyl)-1H-imidazol-2-yl)-7-(methylamino)-7-oxoheptyl)thiazole-5-carboxamide]
1 to 5	< 1	CNC(=O)CCCCC[C@H](NC(=O)Cn1c(=O)ncc2ccccc21)c1ncc(-c2ccc3ccccc3c2)[nH]1 [Entry 151]
1 to 5	1 to 5	CNC(=O)CCCCC[C@H](NC(=O)c1cncs1)c1ncc(-c2ccc(-c3cc(C)[nH]n3)cc2)[nH]1 [Entry 59, (S)-N-(1-(5-(4-(5-methyl-1H-pyrazol-3-yl)phenyl)-1H-imidazol-2-yl)-7-(methylamino)-7-oxoheptyl)thiazole-5-carboxamide]
1 to 5	> 5	CNC(=O)CCCCC[C@H](NC(=O)c1cncs1)c1ncc(-c2ccc3ccccc3n2)[nH]1 [Entry 128, (S)-N-(7-(methylamino)-7-oxo-1-(5-(quinolin-2-yl)-1H-imidazol-2-yl)heptyl)thiazole-5-carboxamide]
1 to 5	1 to 5	CNC(=O)CCCCC[C@H](NC(=O)c1cncs1)c1ncc(-c2ccc(-c3cccnc3)cc2)[nH]1 [Entry 196, (S)-N-(7-(methylamino)-7-oxo-1-(5-(4-(pyridin-3-yl)phenyl)-1H-imidazol-2-yl)heptyl)thiazole-5-carboxamide]
1 to 5	1 to 5	CNC(=O)CCCCC[C@H](NC(=O)Cn1ccnn1)c1ncc(-c2ccc3ccncc3c2)[nH]1 [Entry 58, (S)-7-(2-(1H-1,2,3-triazol-1-yl)acetamido)-7-(5-(isoquinolin-7-yl)-1H-imidazol-2-yl)-N-methylheptanamide]
1 to 5	> 5	CNC(=O)CCCCC[C@H](NC(=O)c1ccn(C)n1)c1ncc(-c2cc3ccccc3nc2OC)[nH]1 [Entry 135, (S)-N-(1-(5-(2-methoxyquinolin-3-yl)-1H-imidazol-2-yl)-7-(methylamino)-7-oxoheptyl)-1-methyl-1H-pyrazole-3-carboxamide]
< 1	< 1	CNC(=O)CCCCC[C@H](NC(=O)c1ccns1)c1ncc(-c2ccc3ccncc3c2)[nH]1 [Entry 67]
> 5	> 5	CNC(=O)CCCCC[C@H](NC(=O)Cn1ccc(C)n1)c1ncc(-c2ccc(-c3ccn(C)n3)cc2)[nH]1 [Entry 171, (S)-N-methyl-7-(2-(3-methyl-1H-pyrazol-1-yl)acetamido)-7-(5-(4-(1-methyl-1H-pyrazol-3-yl)phenyl)-1H-imidazol-2-yl)heptanamide]

Structure (SMILES)	EC50 [1] [µM]	IC50 (human HDAC1) [µM]
CNC(=O)CCCCC[C@H](NC(=O)C12CCN(CC1)CC2)c1ncc(-c2ccc(Cl)c(C)c2)[nH]1 [Entry 181, (S)-N-(1-(5-(4-chloro-3-methylphenyl)-1H-imidazol-2-yl)-7-(methylamino)-7-oxo-heptyl)quinuclidine-4-carboxamide]	> 5	1 to 5
CNC(=O)CCCCC[C@H](NC(=O)C12CCN(CC1)CC2)c1ncc(-c2cc3ccccc3nc2OC)[nH]1 [Entry 177, (S)-N-(1-(5-(2-methoxyquinolin-3-yl)-1H-imidazol-2-yl)-7-(methylamino)-7-oxo-heptyl)quinuclidine-4-carboxamide]	< 1	< 1

— US9365541B2, “Compounds for use in the treatment of parasitic diseases” (IRBM—SCIENCE PARK S.P.A., priority 2012, dated 2016)
